Common to all, as to format: biochemical
Experiment [1] addresses MAGL (Homo sapiens (Human), UniProt Q99685). The experiment in a line: In vitro competitive activity-based protein profiling, MAGL (human). The conditions noted are these: human proteome; for inhibition at 10 µM: read-out: MAGL % inh. 10 μM (human); for inhibition at 1 µM: read-out: MAGL % inh. 1 μM (human). On the procedure: (§1) In Vitro Competitive Activity-Based Protein Profiling.
(§2) Proteomes (mouse brain membrane fraction or cell lysates for mouse assays; human prefrontal cortex or cell membrane fractions for human assays) (50 μL, 1.0 mg/mL total protein concentration) were preincubated with varying concentrations of inhibitors at 37° C. After 30 min, FP—Rh or HT-01 (1.0 μL, 50 μM in DMSO) was added and the mixture was incubated for another 30 min at 37° C. Reactions were quenched with SDS loading buffer (15 μL-4×) and run on SDS-PAGE. Following gel imaging, serine hydrolase activity was determined by measuring fluorescent intensity of gel bands corresponding to MAGL and FAAH using ImageJ 1.43u software.

Experiment [2] has as its target FAAH (Homo sapiens (Human), UniProt O00519). The experiment can be described thus: In vitro competitive activity-based protein profiling, FAAH (human). The conditions noted are these: human proteome; for inhibition at 10 µM: read-out: FAAH % inh. 10 μM (human); for inhibition at 1 µM: read-out: FAAH % inh. 1 μM (human). On the procedure:
as §1, §2

The target in experiment [3] is MAGL (Mus musculus (Mouse), UniProt O35678). The experiment in a line: In vitro competitive activity-based protein profiling, MAGL (mouse). The conditions noted are these: 1 μM, read-out: MAGL % inh. 1 μM (mouse). The method in brief:
(§3)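 Gel-based read-out: fluorescence intensity of MAGL and FAAH bands after SDS-PAGE gave serine hydrolase activity. Proteomes at 1.0 mg/mL were pretreated 30 min at 37° C with inhibitor over a concentration range, then labelled 30 min with FP-Rh or HT-01 (stock 50 μM in DMSO).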

Experiment [4] concerns the target FAAH (Mus musculus (Mouse), UniProt O08914). The experiment in a line: In vitro competitive activity-based protein profiling, FAAH (mouse). To be noted: 1 μM, read-out: FAAH % inh. 1 μM (mouse). An outline of the steps: as §3

A value given as a limit tells only on which side of the number the result lay.

Sequence of FAAH (Mus musculus (Mouse), UniProt O08914) (O08914 whole entry): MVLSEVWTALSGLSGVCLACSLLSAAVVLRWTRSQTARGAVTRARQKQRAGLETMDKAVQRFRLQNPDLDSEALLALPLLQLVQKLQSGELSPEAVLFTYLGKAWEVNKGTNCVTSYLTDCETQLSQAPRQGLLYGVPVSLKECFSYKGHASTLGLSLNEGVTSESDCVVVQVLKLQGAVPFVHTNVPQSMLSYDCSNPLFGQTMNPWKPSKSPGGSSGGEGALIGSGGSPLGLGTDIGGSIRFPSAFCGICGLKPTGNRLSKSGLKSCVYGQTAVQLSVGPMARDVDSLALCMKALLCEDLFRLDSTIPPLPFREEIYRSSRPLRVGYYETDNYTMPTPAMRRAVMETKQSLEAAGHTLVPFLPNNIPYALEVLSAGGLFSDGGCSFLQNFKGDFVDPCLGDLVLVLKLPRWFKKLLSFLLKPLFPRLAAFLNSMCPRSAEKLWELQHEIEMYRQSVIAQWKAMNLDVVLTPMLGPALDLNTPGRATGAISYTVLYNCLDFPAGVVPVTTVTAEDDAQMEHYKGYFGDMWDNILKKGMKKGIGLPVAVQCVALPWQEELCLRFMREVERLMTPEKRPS
Sequence of MAGL (Homo sapiens (Human), UniProt Q99685) (Q99685 whole entry): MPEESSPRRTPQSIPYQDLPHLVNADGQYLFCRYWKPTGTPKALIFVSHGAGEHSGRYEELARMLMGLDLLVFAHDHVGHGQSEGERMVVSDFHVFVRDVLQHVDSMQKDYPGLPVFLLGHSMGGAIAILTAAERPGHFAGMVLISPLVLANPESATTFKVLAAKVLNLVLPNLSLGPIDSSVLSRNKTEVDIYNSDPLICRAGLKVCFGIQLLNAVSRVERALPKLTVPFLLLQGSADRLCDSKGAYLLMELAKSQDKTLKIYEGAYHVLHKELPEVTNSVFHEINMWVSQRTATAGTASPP
Sequence of MAGL (Mus musculus (Mouse), UniProt O35678) (O35678 whole entry): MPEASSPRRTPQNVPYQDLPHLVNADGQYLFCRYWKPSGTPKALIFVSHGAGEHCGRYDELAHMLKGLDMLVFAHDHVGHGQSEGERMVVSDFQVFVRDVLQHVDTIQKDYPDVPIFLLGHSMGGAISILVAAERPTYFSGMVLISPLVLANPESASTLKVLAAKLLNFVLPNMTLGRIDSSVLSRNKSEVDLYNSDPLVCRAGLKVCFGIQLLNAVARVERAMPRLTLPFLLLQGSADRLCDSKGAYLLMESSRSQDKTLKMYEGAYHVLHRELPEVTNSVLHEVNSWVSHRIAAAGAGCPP
Sequence of FAAH (Homo sapiens (Human), UniProt O00519) (O00519 whole entry): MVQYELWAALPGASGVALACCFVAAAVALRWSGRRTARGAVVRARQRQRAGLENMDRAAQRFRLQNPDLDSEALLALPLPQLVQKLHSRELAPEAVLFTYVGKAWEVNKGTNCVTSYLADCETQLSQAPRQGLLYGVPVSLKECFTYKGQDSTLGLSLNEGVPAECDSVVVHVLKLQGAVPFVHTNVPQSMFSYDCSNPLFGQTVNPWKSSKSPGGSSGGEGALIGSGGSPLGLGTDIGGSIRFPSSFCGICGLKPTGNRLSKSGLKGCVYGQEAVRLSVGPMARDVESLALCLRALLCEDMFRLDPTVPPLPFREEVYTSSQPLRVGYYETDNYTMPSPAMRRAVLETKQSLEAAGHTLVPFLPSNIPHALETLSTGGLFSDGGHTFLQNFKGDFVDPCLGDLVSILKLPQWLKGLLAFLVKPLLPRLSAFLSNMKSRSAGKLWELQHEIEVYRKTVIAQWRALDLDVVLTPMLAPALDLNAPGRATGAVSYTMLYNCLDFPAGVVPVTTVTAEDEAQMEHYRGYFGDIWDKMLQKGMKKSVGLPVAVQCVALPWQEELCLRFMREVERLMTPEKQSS

As to `CC(=O)N(C)c1cnn(C(=O)N2CCC3(CCN(Cc4ccc(N5CCOCC5)cc4)C3)C2)c1` (stereo not shown) [Example 3, N-methyl-N-(1-(7-(4-morpholinobenzyl)-2,7-diazaspiro[4.4]nonane-2-carbonyl)-1H-pyrazol-4-yl)acetamide], the inhibition at 10 µM in experiment [1] and in experiment [2] was not below 75% in each case. For the same compound, the figures for the inhibition at 1 µM in experiment [3] and in experiment [4] were 0 to 25% and 50 to 75%, respectively.
Regarding `CC(=O)N(C)c1cnn(C(=O)N2CCC3(CCN(Cc4ccc(N5CCOCC5)cc4C)C3)C2)c1` (stereo not shown) [Example 5, N-methyl-N-(1-(7-(2-methyl-4-morpholinobenzyl)-2,7-diazaspiro[4.4]nonane-2-carbonyl)-1H-pyrazol-4-yl)acetamide], the inhibition at 10 µM in experiment [1] and in experiment [2] was not below 75% in each case. Also, the values for the inhibition at 1 µM in experiment [3] and in experiment [4] were 0 to 25% and 50 to 75%, respectively.
As to `CC(=O)N(C)c1cnn(C(=O)N2CC3CN(Cc4ccc(N5CCOCC5)cc4)CC3C2)c1` (stereo not shown) [Example 15, N-methyl-N-(1-(5-(4-morpholinobenzyl)octahydropyrrolo[3,4-c]pyrrole-2-carbonyl)-1H-pyrazol-4-yl)acetamide], the inhibition at 10 µM in experiment [1] and in experiment [2] was not below 75% each time. Moreover, the inhibition at 1 µM in experiment [3] lay in the range of 0 to 25%; in experiment [4] it was 25 to 50%.
As for `CC(=O)N(C)c1cnn(C(=O)N2CC3(CCN(Cc4ccc(N5CCOCC5)cc4)CC3)C2)c1` [Example 21, N-methyl-N-(1-(7-(4-morpholinobenzyl)-2,7-diazaspiro[3.5]nonane-2-carbonyl)-1H-pyrazol-4-yl)acetamide], the inhibition at 10 µM was 0 to 25% in experiment [1] and not below 75% in experiment [2]. The inhibition at 1 µM fell in the range of 0 to 25% in experiment [3] and 25 to 50% in experiment [4].
Regarding `CC(=O)N(C)c1cnn(C(=O)N2CCC3(CCN(Cc4cccc(N5CCOCC5)c4)C3)C2)c1` (stereo not shown) [Example 48, N-methyl-N-(1-(7-(3-morpholinobenzyl)-2,7-diazaspiro[4.4]nonane-2-carbonyl)-1H-pyrazol-4-yl)acetamide], the inhibition at 10 µM in experiment [1] and in experiment [2] was not below 75% throughout. In addition, the inhibition at 1 µM fell in the range of 0 to 25% in experiment [3] and 25 to 50% in experiment [4].
With `CC(=O)N(C)c1cnn(C(=O)N2CCC3(CCN(Cc4ccccc4F)C3)C2)c1` (stereo not shown) [Example 52, N-(1-(7-(2-fluorobenzyl)-2,7-diazaspiro[4.4]nonane-2-carbonyl)-1H-pyrazol-4-yl)-N-methylacetamide], the inhibition at 10 µM in experiment [1] and in experiment [2] was not below 75% in each case. Moreover, the inhibition at 1 µM is 0 to 25% in experiment [3] and not below 75% in experiment [4].
On to `CC(=O)N(C)c1cnn(C(=O)N2CCC3(CCN(Cc4ccccc4C)C3)C2)c1` (stereo not shown) [Example 54, N-methyl-N-(1-(7-(2-methylbenzyl)-2,7-diazaspiro[4.4]nonane-2-carbonyl)-1H-pyrazol-4-yl)acetamide], for which the inhibition at 10 µM in experiment [1] and in experiment [2] was not below 75% each time. For the same compound, the inhibition at 1 µM was 0 to 25% in experiment [3] and not below 75% in experiment [4].
As for `COc1ccccc1CN1CCC2(CCN(C(=O)n3cc(N(C)C(C)=O)cn3)C2)C1` (stereo not shown) [Example 56, N-(1-(7-(2-methoxybenzyl)-2,7-diazaspiro[4.4]nonane-2-carbonyl)-1H-pyrazol-4-yl)-N-methylacetamide], the inhibition at 10 µM in experiment [1] and in experiment [2] was not below 75% in each case. Further, the inhibition at 1 µM in experiment [3] and in experiment [4] was 0 to 25% throughout.
Regarding `CC(=O)N(C)c1cnn(C(=O)N2CCC3(CCN(Cc4ccccc4N4CCCC4)C3)C2)c1` (stereo not shown) [Example 60, N-methyl-N-(1-(7-(2-(pyrrolidin-1-yl)benzyl)-2,7-diazaspiro[4.4]nonane-2-carbonyl)-1H-pyrazol-4-yl)acetamide], the inhibition at 10 µM in experiment [1] and in experiment [2] was not below 75% each time. Further, the inhibition at 1 µM in experiment [3] and in experiment [4] was 0 to 25% each time.
`CC(=O)N(C)c1cnn(C(=O)N2CCC3(CCN(Cc4ccccc4N4CCOCC4)C3)C2)c1` (stereo not shown) [Example 62, N-methyl-N-(1-(7-(2-morpholinobenzyl)-2,7-diazaspiro[4.4]nonane-2-carbonyl)-1H-pyrazol-4-yl)acetamide]: the inhibition at 10 µM in experiment [1] was 25 to 50%; in experiment [2] it was not below 75%. The inhibition at 1 µM in experiment [3] and in experiment [4] was 0 to 25% each time.
For the compound `CS(=O)(=O)Nc1cnn(C(=O)N2CCC3(CCN(Cc4ccc(N5CCCC5)c(Cl)c4)C3)CC2)c1` [Example 298, N-(1-(2-(3-chloro-4-(pyrrolidin-1-yl)benzyl)-2,8-diazaspiro[4.5]|decane-8-carbonyl)-1H-pyrazol-4-yl)methanesulfonamide], the inhibition at 1 µM in experiment [1] and in experiment [2] was not below 75% each time.
Take `CN(Cc1ccccc1C(F)(F)F)[C@@H]1C[C@@H]2CN(C(=O)n3cc(NS(C)(=O)=O)cn3)C[C@@H]2C1` [Example 300, N-(1-(cis-5-(methyl(2-(trifluoromethyl)benzyl)amino)octahydrocyclopenta[c]pyrrole-2-carbonyl)-1H-pyrazol-4-yl)methanesulfonamide]: the inhibition at 1 µM in experiment [1] and in experiment [2] was not below 75% each time.
With `CS(=O)(=O)Nc1cnn(C(=O)N2CCN(Cc3ccc(-c4ccc(C(F)(F)F)nc4)cc3C(F)(F)F)CC2)c1` [Example 301, N-(1-(4-(2-(trifluoromethyl)-4-(6-(trifluoromethyl)pyridin-3-yl)benzyl)piperazine-1-carbonyl)-1H-pyrazol-4-yl)methanesulfonamide], the inhibition at 10 µM in experiment [1] and in experiment [2] was not below 75% throughout.
For the compound `CS(=O)(=O)Nc1cnn(C(=O)N2CCN(Cc3ccc(-c4nc5ccccc5o4)cc3C(F)(F)F)CC2)c1` [Example 304, N-(1-(4-(4-(benzo[d]oxazol-2-yl)-2-(trifluoromethyl)benzyl)piperazine-1-carbonyl)-1H-pyrazol-4-yl)methanesulfonamide], the inhibition at 1 µM in experiment [1] was 25 to 50%; in experiment [2], not below 75%.
For `CS(=O)(=O)Nc1cnn(C(=O)N2CCN(Cc3ccc(-c4nc5ccccc5s4)cc3C(F)(F)F)CC2)c1` [Example 305, N-(1-(4-(4-(benzo[d]thiazol-2-yl)-2-(trifluoromethyl)benzyl)piperazine-1-carbonyl)-1H-pyrazol-4-yl)methanesulfonamide], the inhibition at 1 µM in experiment [1] and in experiment [2] was not below 75% each time.
In the case of `Cc1nnc(-c2ccc(CN3CCN(C(=O)n4cc(NS(C)(=O)=O)cn4)CC3)c(C(F)(F)F)c2)o1` [Example 306, N-(1-(4-(4-(5-methyl-1,3,4-oxadiazol-2-yl)-2-(trifluoromethyl)benzyl)piperazine-1-carbonyl)-1H-pyrazol-4-yl)methanesulfonamide], the inhibition at 1 µM in experiment [1] was in the range of 50 to 75%; in experiment [2], 0 to 25%.
In the same order, the values of `Cc1nccn1-c1ccc(CN2CCN(C(=O)n3cc(NS(C)(=O)=O)cn3)CC2)c(C(F)(F)F)c1` [Example 308, N-(1-(4-(4-(2-methyl-1H-imidazol-1-yl)-2-(trifluoromethyl)benzyl)piperazine-1-carbonyl)-1H-pyrazol-4-yl)methanesulfonamide] are not below 75% and 0 to 25%.
In the same order, the values of `CS(=O)(=O)Nc1cnn(C(=O)N2CCN(Cc3ccc(-c4ncccn4)cc3C(F)(F)F)CC2)c1` [Example 310] are not below 75% and not below 75%.
As for `CS(=O)(=O)Nc1cnn(C(=O)N2CCN(Cc3ccc(-c4cccnn4)cc3C(F)(F)F)CC2)c1` [Example 311, N-(1-(4-(4-(pyridazin-3-yl)-2-(trifluoromethyl)benzyl)piperazine-1-carbonyl)-1H-pyrazol-4-yl)methanesulforamide], the inhibition at 1 µM in experiment [1] is not below 75%; in experiment [2], 50 to 75%.
Taken in the same sequence, the figures for `CS(=O)(=O)Nc1cnn(C(=O)N2CCN(Cc3ccc(-c4ccnnc4)cc3C(F)(F)F)CC2)c1` [Example 312, N-(1-(4-(4-(pyridazin-4-yl)-2-(trifluoromethyl)benzyl)piperazine-1-carbonyl)-1H-pyrazol-4-yl)methanesulfonamide] were not below 75% and 25 to 50%.
With `CC(=O)Nc1cnn(C(=O)N2CC3CN(Cc4cccc(Oc5ccc(Cl)cc5)c4)CC3C2)c1` (stereo not shown) [Example 316, N-(1-(5-(3-(4-chlorophenoxy)benzyl)octahydropyrrolo [3,4-c]pyrrole-2-carbonyl)-1H-pyrazol-4-yl)acetamide], the inhibition at 1 µM in experiment [1] and in experiment [2] was not below 75% each time.
As for `C#Cc1ccc(CN2CCN(C(=O)n3cc(NS(C)(=O)=O)cn3)CC2)cc1` [Example 318, N-(1-(4-(4-ethynylbenzyl)piperazine-1-carbonyl)-1H-pyrazol-4-yl)methanesulfonamide], the figures for the inhibition at 1 µM in experiment [1] and in experiment [2] were 25 to 50% and not below 75%, respectively.

Values taken from patent US10323038B2, “Pyrazole compounds and methods of making and using same” (ABIDE THERAPEUTICS, INC., priority 2015, dated 2019).
